The subject of data set [1] is L. donovani axenic amastigotes. The data set can be described thus: In vitro anti-leishmania activity (IC50 vs. L. donovani axenic amastigotes). The note with it: Leishmania donovani. The data set is classed as cell-based.
In data set [2] the test system is Trypanosoma brucei rhodesiense. Kind of data set: Anti-protozoan data: T.b.r. IC50. The format is cell-based. The note with it: Tables VI(a), VI(c), read-out: T.b.r. IC50.
The next data set has as its system Trypanosoma cruzi. Kind of data set: Anti-protozoan data: T. cruzi IC50. The format is cell-based. The settings on record: Tables VI(a), VI(c), read-out: T. cruzi IC50.
The subject of a further data set is Plasmodium falciparum. The data set can be described thus: Anti-protozoan data: P. falcip. IC50. The settings on record: Tables VI(a), VI(c), read-out: P. falcip. IC50. The format is cell-based.
For the next data set, the system named is DNA. Kind of data set: DNA binding ΔTm. The settings on record: Tables VI(a), VI(c).
Data set [3] relates to Mycobacterium tuberculosis. Kind of data set: Compounds tested against Mycobacterium tuberculosis (MIC90). The data set is classed as cell-based. The note with it: read-out: M. tb. MIC90.
Another data set has as its system Candida albicans. Kind of data set: Anti-fungal data: Candida albicans. The format is cell-based. The note with it: for MFC / MIC80: strain A39; for MIC: strain A39, read-out: Candida albicans (A39) MIC100.
A further data set deals with Aspergillus fumigatus. The data set can be described thus: Anti-fungal data: Aspergillus fumigatus. The format is cell-based. The note with it: for MFC / MIC80: strain DUMC 168.95; for MIC: strain DUMC 168.95, read-out: Aspergillus. Fumigatus (DUMC 168.95) MIC100.
[4] abbreviates: Tables VI(a), VI(c), read-out: Leishmania donovani IC50.
The mark [5] stands for this setting: axenic amastigotes, Tables I-V, read-out: IC50 vs. L. donovani.

Several values for one entry are separate records, joined by “and”; a condition that tells them apart may be missing. Identical values can stand only once. Like-named read-outs stand apart in the source and are kept apart here.

The compound `CC(C)NC(=N)c1ccc(OCCCOc2cccc(-c3cc4cc(C(=N)NC(C)C)ccc4o3)c2)cc1.Cl.Cl` [Compound 33, 2-(3-(3-(4-(N-Isopropylcarbamimidoyl)phenoxy)propoxy)phenyl)-N-isopropylbenzofuran-5-carboxamidine dihydrochloride] yielded a melting point of 205 to 208 °C. Moreover, in data set [1] (setting [4]), the half-inhibitory concentration (IC50) was 4490 ± 560 nM. In addition, the IC50 in data set [1] (setting [5]) was 4490 ± 560 nM. The half-maximal inhibitory concentration (IC50) in [2] was 547 nM. For the same compound, in the data set on Trypanosoma cruzi, the IC50 is 93600 nM. Also, the IC50 in the data set on Plasmodium falciparum worked out at 61.3 nM. For the same compound, in the data set on DNA, the “DNA binding Δ Tm” value is on record as 14.8. Also, the MIC90 in data set [3] is < 0.62 µg/mL and < 1 µM. Also, in the data set with Candida albicans, the MFC came out at 10 µg/mL, the MIC80 was not above 1 µg/mL and the MIC came to 10 µg/mL. Also, in the data set with Aspergillus fumigatus, the MFC is more than 100 µg/mL, the MIC80 stood at 10 µg/mL and the MIC was found to be 100 µg/mL. The IC50 in the data set “in vitro” came out at 26500 nM.
On to `CC(C)NC(=N)c1ccc(OCCCCCOc2cccc(-c3cc4cc(C(=N)NC(C)C)ccc4o3)c2)cc1.Cl.Cl` [Compound 39, 2-(3-(5-(4-(N-Isopropylcarbamimidoyl)phenoxy)pentyloxy)phenyl)-N-isopropylbenzofuran-5-carboxamidine dihydrochloride], for which the melting point was in the range of 225 to 227 °C. Besides, in data set [1] (setting [4]), the IC50 came out at 6860 ± 2100 nM. Further, the IC50 in [1] (setting [5]) was 6860 ± 2100 nM. In data set [2], the IC50 was 452 nM. Moreover, the IC50 with Trypanosoma cruzi is 26000 nM. Moreover, the IC50 in the data set with Plasmodium falciparum amounted to 123 nM. In the data set with DNA, the “DNA binding Δ Tm” value is recorded as 20.8. In addition, the MIC90 in data set [3] is 1.12 µg/mL and 1.8 µM. Moreover, in the data set with Candida albicans, the MFC stood at 100 µg/mL, the MIC80 turned out to be 10 µg/mL and the MIC was 100 µg/mL. Also, in the data set with Aspergillus fumigatus, the MFC is more than 100 µg/mL, the MIC80 worked out at 10 µg/mL and the MIC was 100 µg/mL. This compound gave an IC50 in “in vitro” of 10100 nM.
With `Cl.Cl.N=C(N)c1ccc(OCCCCOc2ccc(-c3cc4cc(C(=N)N)ccc4o3)cc2)cc1` [Compound 47, 2-(4-(4-(4-Carbamimidoylphenoxy)butoxy)phenyl)benzofuran-5-carboxamidine dihydrochloride], the melting point was 310 °C. The IC50 in data set [1] (setting [4]) worked out at 610 ± 530 nM. Moreover, the IC50 in data set [1] (setting [5]) was 610 ± 530 nM. Besides, in data set [2], the IC50 was found to be 164 nM. For the same compound, the IC50 in the data set on Trypanosoma cruzi turned out to be 2490 nM. Besides, the IC50 in the data set on Plasmodium falciparum was determined as 141 nM. The “DNA binding Δ Tm” value in the data set on DNA was 11.8. For the same compound, in [3], the MIC90 is 31.8 µg/mL and 59.8 µM. Further, in the data set on Candida albicans, the MFC is 10 µg/mL, the MIC80 is not above 1 µg/mL and the MIC worked out at 10 µg/mL. For the same compound, in the data set on Aspergillus fumigatus, the MFC is more than 100 µg/mL, the MIC80 is 10 µg/mL and the MIC came to 100 µg/mL. Also, the half-inhibitory concentration (IC50) in “in vitro” was determined as 1300 nM.
`CC(C)NC(=N)c1ccc(OCCCCOc2ccc(-c3cc4cc(C(=N)NC(C)C)ccc4o3)cc2)cc1.Cl.Cl` [Compound 48, 2-(4-(4-(4-(N-Isopropylcarbamimidoyl)phenoxy)butoxy)phenyl)-N-isopropylbenzofuran-5-carboxamidine dihydrochloride] yielded a melting point of 305 °C. In addition, the IC50 in [1] (setting [4]) amounted to 2970 ± 160 nM. Further, the IC50 in data set [2] came to 1110 nM. In addition, in the data set with Trypanosoma cruzi, the IC50 was found to be 21000 nM. The 50% inhibitory concentration (IC50) in the data set on Plasmodium falciparum was determined as 302 nM. In the data set on DNA, the “DNA binding Δ Tm” value amounted to 13.3. For the same compound, in data set [3], the MIC90 was 59.4 µg/mL and 95.6 µM. Moreover, in the data set with Candida albicans, the MFC amounted to 100 µg/mL, the MIC80 stood at 100 µg/mL and the MIC amounted to 100 µg/mL. In addition, in the data set with Aspergillus fumigatus, the MFC was more than 100 µg/mL, the MIC80 was found to be 10 µg/mL and the MIC came to 100 µg/mL. In addition, the IC50 in the data set “in vitro” amounted to 6920 nM.

What is called IC50 is the point on the concentration scale where inhibition reaches its midpoint. By MIC90 is commonly meant an inhibitory concentration at the 90% level, which refers to growth in some studies and to a panel of isolates in others. The term MFC denotes the lowest tested concentration that kills the fungus rather than only halting it. A higher MFC goes with less potent killing. As usually defined, the MIC80 is the lowest concentration that inhibits either 80% of growth or 80% of the strains tested, depending on the study. Read a high MIC80 as lower susceptibility. The melting point is the temperature, or range, at which the solid turns liquid.

Source of the values: patent US20080114047A1 (priority 2003, published 2008).
